From US6730672B2, “Aminoheterocyclic derivatives as antithrombotic or anticoagulant agents” (Zeneca Limited, priority 1994, dated 2004)

Key:
human blood plasma [1] = assay: Measurement of Anticoagulant Activity in vitro, activated partial thromboplastin time (APTT) test; format: biochemical; conditions: test c)
Protocol: (§1) c) Measurement of Anticoagulant Activity
(§2) An in vitro assay whereby human venous blood was collected and added directly to a sodium citrate solution (3.2 g/100 ml, 9 parts blood to 1 part citrate solution). Blood plasma was prepared by contrifugation (1000 g, 15 minutes) and stored at 2-4° C. Conventional activated partial thromboplastin time (APTT) and prothrombin time (PT) tests were carried out in the presence of various concentrations of a test compound and the concentration of test compound required to double the clotting time, hereinafter referred to as CT2, was determined. In the APTT test, the test compound, blood plasma and APTT reagent were incubated at 37° C. for 3 minutes. Calcium chloride (0.02M) was added and fibrin formation and the time required for a clot to form were determined. In the PT test, an analogous procedure was followed except that tissue thromboplastin was used in place of APTT reagent.

human blood plasma [2] = assay: Measurement of Anticoagulant Activity in vitro, prothrombin time (PT) test; format: biochemical; conditions: test c)
Protocol: as §1, §2

[3] = test system: Alderley Park Wistar rats; assay: Ex vivo Assay of Anticoagulant Activity (APTT and PT coagulation assays after dosing); format: in vivo; conditions: test d), rat
Protocol: d) An ex vivo Assay of Anticoagulant Activity
The test compound was administered intravenously or orally to a group of Alderley Park Wistar rats. At various times thereafter animals were anaesthetised, blood was collected and APTT and PT coagulation assays analogous to those described hereinbefore were conducted.

human thrombin = human thrombin (Homo sapiens, UniProt P00734); assay: Measurement of Thrombin Inhibition (chromogenic substrate S-2238); format: biochemical; conditions: test b), read-out: IC50 against thrombin
Excerpt: b) Measurement of Thrombin Inhibition
The procedure of method a) was repeated except that human thrombin (0.005 Units/ml) and the chromogenic substrate S-2238 (KabiVitum AB) were employed.

[4] = test system: Alderley Park Wistar rats; assay: In vivo Measurement of Antithrombotic Activity (thromboplastin/stasis-induced vena cava thrombus); conditions: test e), rat, 5 mg/kg dose
Protocol: e) An in vivo Measurement of Antithrombotic Activity
Thrombus formation was induced using an analogous method to that described by Vogel et al., Thromb. Research, 1989, 54, 399-410. A group of Alderley Park Wistar rats was anaesthetised and surgery was performed to expose the vena cava. […] Test compound was administered intravenously or orally. At an appropriate time thereafter tissue thromboplastin (1 ml/kg) was administered into the jugular vein and, after 10 seconds, the two sutures were tightened to induce stasis within the ligated portion of vena cava. After 10 minutes the ligated tissue was excised and the thrombus therein was isolated, blotted and weighed.

human Factor Xa = human Factor Xa (Homo sapiens, UniProt P00742); assay: Measurement of Factor Xa Inhibition (chromogenic substrate S-2765); format: biochemical; conditions: test a), pH7.5, 37° C., read-out: IC50 against Factor Xa
Chain of human Factor Xa (P00742 235-488 limits assumed): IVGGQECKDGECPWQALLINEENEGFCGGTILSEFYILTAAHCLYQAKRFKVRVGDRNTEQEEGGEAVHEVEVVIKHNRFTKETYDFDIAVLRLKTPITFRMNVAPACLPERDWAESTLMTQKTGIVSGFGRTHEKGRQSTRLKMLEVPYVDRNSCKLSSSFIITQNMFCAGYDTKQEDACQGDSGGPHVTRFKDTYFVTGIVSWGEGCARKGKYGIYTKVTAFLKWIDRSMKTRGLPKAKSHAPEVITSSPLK
Chain of human Factor Xa (P00742 41-179 partner limits assumed): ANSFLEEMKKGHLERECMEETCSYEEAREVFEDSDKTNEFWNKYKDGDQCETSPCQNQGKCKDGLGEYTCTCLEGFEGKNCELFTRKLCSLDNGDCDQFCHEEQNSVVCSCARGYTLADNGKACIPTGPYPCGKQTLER
Protocol: a) Measurement of Factor Xa Inhibition
An in vitro assay system was carried out based on the method of Kettner et al., J. Biol. Chem., 1990, 265, 18289-18297, whereby various concentrations of a test compound were dissolved in a pH7.5 buffer containing 0.5% of polyethylene glycol and incubated at 37° C. with human Factor Xa (0.001 Units/ml, 0.3 ml) for 15 minutes. The chromogenic substrate S-2765 (KabiVitum AB, 20 μM) was added and the mixture was incubated at 37° C. for 20 minutes whilst the absorbance at 405 nm was measured. The maximum reaction velocity (Vmax) was determined and compared with that of a control sample containing no test compound. Inhibitor potency was expressed as an IC50 value.

SMILES | CT2 (APTT), concentration required to double the clotting time (human blood plasma [1]) [µM] | CT2 (PT), concentration required to double the clotting time (human blood plasma [2]) [µM] | clotting time following intravenous administration ([3]; 10 mg/kg dose) | IC50 (human thrombin) [nM] | thrombus weight following intravenous administration [4] | IC50 (human Factor Xa) [nM] | clotting time following intravenous administration ([3]; 5 mg/kg dose) | melting point
O=C(CNS(=O)(=O)c1ccc2ccccc2c1)NC(CNC(=O)C1CCN(c2ccncc2)CC1)C(=O)N1CCCCC1 (stereo not drawn) [Example 1, 2-(2-naphthalenesulphonamido)-N-{1-piperidinocarbonyl-2-[1-(4-pyridyl)-piperidin-4-ylcarbonylamino]ethyl}acetamide] | 62 | 14 | increased clotting time | > 100000 | reduced thrombus weight | 300 | – | –
O=C(C1CCN(c2ccncc2)CC1)N1CCN(S(=O)(=O)/C=C/c2ccc(Cl)cc2)CC1 [Example 39, Compound No. 2, 1-[(E)-4-chlorostyrylsulphonyl]-4-[-1-(4-pyridyl)piperidin-4-ylcarbonyl]piperazine] | 1.8 | 1 | – | > 100000 | reduced thrombus weight | 12 | increased clotting time | –
O=C(C1CCN(c2ccncc2)CC1)N1CCN(S(=O)(=O)c2ccc3cc(Cl)ccc3c2)CC1 [Example 40, Compound No. 5, 1-(6-chloronaphth-2-ylsulphonyl)-4-[1-(4-pyridyl)piperidin-4-ylcarbonyl]piperazine] | 1.2 | 0.5 | – | 34000 | – | 3 | increased clotting time | –
CCOC(=O)C1CN(S(=O)(=O)c2ccc3cc(Cl)ccc3c2)CCN1C(=O)C1CCN(c2ccncc2)CC1 (stereo not drawn) [Example 62, 4-(6-chloronaphth-2-ylsulphonyl)-2-ethoxycarbonyl-1-[1-(4-pyridyl)-piperidin-4-ylcarbonyl]piperazine] | – | 0.7 | – | > 10000 | – | 2 | increased clotting time | –
O=C(O)C1CN(S(=O)(=O)c2ccc3cc(Cl)ccc3c2)CCN1C(=O)C1CCN(c2ccncc2)CC1 (stereo not drawn) [Example 63, 2-carboxy-4-(6-chloronaphth-2-ylsulphonyl)-1-[1-(4-pyridyl)piperidin-4-ylcarbonyl]-piperazine] | – | 4.6 | – | > 10000 | reduced thrombus weight | 8 | increased clotting time | 215 to 220 °C (dec.)
